Like-named read-outs stand apart in the source and are kept apart here.
How the values were obtained:
[1] = tested on: Cowpea weevil, Callosobruchus maculatus (F.); test: Fumigant toxicity, Cowpea weevil; type: in vivo; set-up: concentration or dose not given beside the values; settings: 30 adults
Description: (§1) Shown in Table 2 is the toxicity of both monoiodinated and diiodinated hydrocarbons to the German and American cockroach and the Cowpea weevil after 24 hours of exposure.

[2] = tested on: German cockroach, Blattella germanica (L.); test: Fumigant toxicity in sealed glass jar, German cockroach; settings: in vivo
[3] = tested on: reniform nematode [Rotylenchulus reniformis]; test: Greenhouse nematicide test in cotton field soil, covered and uncovered pots (Experiment 6, FIGS. 1-4); type: in vivo; settings: for Control of the nematode in soil: covered and uncovered, all rates up to 12 mg per kg of soil
Description: FIGS. 2 and 3 illustrate the effectiveness of the diiodoethane and diiodopropane in eliminating the nematode (Rotylenchulus reniformis) from a soil sample. The “x” axis on the top row illustrates the quantity of iodinated hydrocarbon in milligrams per kilogram of soil. The next two rows below the “x” axis indicate the number of nematodes per 100 milliliters of soil, which is also indicated on the “y” axis. In FIG. 2, 1,2-diiodoethane was applied to the soil both in a covered state and an uncovered state. […] This is believed to be so because of the volatility of 1,2 diiodoethane, wherein the cover slows down the rate at which the compound evaporates into the atmosphere.
In this experiment, the pesticidal and herbicidal properties of volatile, low molecular weight, iodinated hydrocarbons were investigated. The relative nematicidal efficacy of iodomethane [C1], 1,2-diiodoethane [C2], 1,3-diiodopropane [C3] and 1,4-diiodobutane [C4] was studied in greenhouse experiments with soil from a cotton field infested with the reniform nematode [Rotylenchulus reniformis]. The chemicals were obtained from Aldrich, Milwaukee, U.S.A. Emulsifiable concentrates of the compounds were prepared by dilution in acetone containing an emulsogen.
(§2) For each chemical, an aqueous emulsion with 0.2% [w/w] of the compound was prepared and was applied to soil at rates of 2, 4, 6, 8, 10, and 12 mgs a.i./Kg soil. The treated soil was mixed and transferred to 1L capacity 10-cm diameter cylindrical pots. Pots with untreated soil [control] and with treated soil were placed on a greenhouse bench in a randomized complete block design. Each treatment was represented by 14 replications [pots], one half of which were left uncovered, and the other 7 were covered with polyethylene plastic bags [approx. 1 mil thickness] retained with a rubber around the pots. Soil samples for nematological analysis [salad bowl incubation technique] were collected 7-10 days after application of the materials. […] In covered pots, applications of the material were particularly effective resulting in 100% kill with the 10 and 12 mg rates. All dosages of C3 and C4 eliminated the nematode in covered pots. […] In a greenhouse experiment of similar design to the nematicide experiments, the C3 and C4 emulsions were applied at rates of 2-20 mgs a.i./Kg soil to a soil infested with crabgrass [Digitaria sanguinalis], purple nutsedge [Cyperus rotundus], Jimson weed [Datura stramonium] and a variety of other weed species. All pots were covered, and the number of weeds were counted 7, 14 and 30 days after application of the chemicals.

[4] = tested on: crabgrass [Digitaria sanguinalis], purple nutsedge [Cyperus rotundus], Jimson weed [Datura stramonium] and a variety of other weed species; test: Greenhouse herbicide test in weed-infested potted soil (Experiment 6, FIG. 6); type: in vivo; settings: up to 20 mg per kg of soil; one week
Description: Illustrated in FIGS. 6 and 7 are the herbicidal properties of the present invention. In FIG. 6, 1,3-diiodopropane and 1,4-diiodobutane were added to a soil sample contained in a pot, wherein the number of weeds were counted at the end of a one week period. The top row of the “x” axis plots the amount in milligrams of iodinated hydrocarbon added per kilogram of soil. The two rows below the top row depict the number of weeds found after a week, which is also plotted on the “y” axis. […] It is inferred that greater dosages would eliminate an even greater number of weeds. FIG. 7 depicts similar results except that the weed controlled was only one variety: crabgrass. […] It is also inferred that dosages larger than 20 mg of iodinated hydrocarbons would further eliminate an even greater number of crabgrass plants.
as §2

[5] = tested on: American cockroach, Periplaneta americana (L.); test: Fumigant toxicity in sealed glass jar, American cockroach; type: in vivo; settings: Periplaneta americana, inhaled or nasal, 8-36 adult males
Description: (§3) As shown below, Table 1 depicts the toxicity of both monoiodinated and diiodinated hydrocarbons to both the German and the American cockroach after 1 hour of exposure.
as §1
(§4) In this experiment both the insecticidal and nematicidal properties of iodinated hydrocarbons were compared. In determining the insecticidal properties of the iodinated hydrocarbons, both American (Periplaneta americana) and German (Blattella germanica) cockroaches were used. Groups of cockroaches were confined in 0.95-liter glass jars with a small cotton ball. Exactly 50 μl of a test chemical was applied to the cotton ball and the jar was sealed. Knockdown, defined as the inability to walk in a coordinated manner, and mortality were assessed every 15 minutes for the first hour and hourly thereafter for 8 hours and again after 24 hours.

Meloidogyne arenaria [6] = test: Greenhouse nematicide test, diiodinated C2-C8 hydrocarbons in infested field soil (Experiments 1 and 2); type: in vivo; settings: rates ≧5.0 mg
Description: (§5) Additionally, the nematicidal properties of iodinated hydrocarbons were investigated in greenhouse experiments with field soil infested with Meloidogyne arenaria and Heterodera Glycines. Chemicals were added directly to infested solid at rates <100 mg/Kg soil. Treated soil was kept moist (approximately 60 percent field capacity) and uncovered for 7-10 days when samples were collected, and the pots were planted with ‘Brim’ soybean, Glycine max. […] 1,2-diiodoethane (C2), 1,3-diiodopropane (C3), 1,4-diiodobutane (C4), 1,5-diiodopentane (C5), 1,6-diiodohexane (C6), and […] were applied to soil rates of 2.5, 5.0, 7.5, and 10 mg/Kg soil. All rates of C2 and C8 were ineffective in reducing M. arenaria juvenile (J2) populations in preplant samples. This was also true for C2 and J2 populations of H. glycines; however, […] rates ≧5.0 mg suppressed J2 populations of H. glycines. […] H. glycines J2 numbers in final soil samples were generally inversely related to rates for C3-C8. […] Applications of C3-C6 to soil increased shoot weights in a manner directly related to dosages but only in a curvilinear pattern.
(§6) In this experiment, the nematicidal properties of various diiodinated hydrocarbons were compared. The nematicidal properties of diiodinated C2-C8 normal hydrocarbons was assessed in a greenhouse experiment with field soil infested with Meloidogyne arenaria [Ma] and Heterodera glycines [Hg]. 1,2-diiodoethane [C2], 1,3-diiodopropane [C3], 1,4-diiodobutane [C4], 1.5-diiodopentane [C5], 1,6-diiodohexane [C6] and 1,8-diiodooctane [C8] were applied to soil at rates of 2.5, 5.0, 7.5, and 10.0 mgs/kg soil. The potted soil was kept moist in a greenhouse for 10 days when preplant samples were collected for analysis, and the pots were planted with ‘Brim’ soybean [Glycine max]. After 7 weeks of growth, the plants were removed and final soil samples taken. Data was collected on weights of fresh roots and shoots, root galling by Ma, and numbers of nematodes in soil and roots. All rates of C2 and C8 were ineffective in reducing Ma juvenile [J2] populations in the preplant samples. This was also true for C2 and J2 populations of Hg; however, C8 rates ≧5.0 mg suppressed J2 populations of Hg. […] Hg J2 numbers in final soil samples were generally inversely related to rates for C3-C8. This pattern of suppression in J2 numbers was also applicable to Ma in the final soil samples but only for C3-C6. […] Applications of C3-C6 to soil increased shoot weights in a manner directly related to dosages but non-linear in pattern.

Heterodera glycines = test: as above; type: in vivo; settings: rates ≧5.0 mg
Description: as §5, §6

[7] = tested on: German cockroach, Blattella germanica (L.); test: Fumigant toxicity in sealed glass jar, German cockroach; type: in vivo; settings: Blattella germanica, inhaled or nasal, 30-60 adult males
Description: as §3, §1, §4

[8] = tested on: American (Periplaneta americana) and German (Blattella germanica) cockroaches; test: Knockdown and mortality of cockroaches in sealed jar (both species); type: in vivo; settings: 50 μl on cotton ball in sealed 0.95-liter jar; for Knockdown of cockroaches: within 1 hour after treatment
Description: as §4, with “sealed.” for “sealed. Knockdown, defined as the inability to walk in a coordinated manner, and mortality were assessed every 15 minutes for the first hour and hourly thereafter for 8 hours and again after 24 hours.”

[9] = tested on: cyst [Heterodera glycines]; test: Greenhouse nematicide test, iodinated C1-C3 hydrocarbons (Experiment 4); type: in vivo
Description: (§7) In this experiment, the nematicidal properties of low molecular weight iodinated hydrocarbons were investigated. The nematicidal properties of iodinated C1-C3 hydrocarbons were evaluated in greenhouse experiments with field soil infested with root-knot [Meloidogyne arenaria] and cyst [Heterodera glycines] nematodes. lodomethane, di-iodomethane, iodoethane, di-iodoethane, and 1-iodopropane were added to soil at rates of 0.1, 0.2 and 0.4 ml/kg soil.
(§8) The treated soil was kept moist for 10 days when soil samples were taken for nematode analysis and ‘Brim’ soybean [Glycine max] planted. Soybeans were allowed to grow for 8 weeks and then were removed from the soil to determine plant growth, root-knot indices and the number of galls generated by M arenaria. […] All compounds except 1-iodopropane increased fresh shoot weight when applied at ≧0.1 ml/kg soil.

[10] = tested on: Paratrichodorus christiei; test: Greenhouse nematicide test, iodomethane vs ethylene diiodide (Experiment 5); type: in vivo
Description: (§9) In this experiment, the nematotoxic properties of ethylene diiodide were compared to that of methyl iodide. The nematicidal efficacies of iodomethane [IM] and ethylene diiodide [EDI] were compared in a greenhouse experiment using field soil infested with Meloidogyne arenaria, Pratylenchus brachyurus, and Paratrichodorus christiei.
(§10) Each compound was added to soil at rates of 100, 200, 300 and 400 mg s/kg of soil. The soil was potted and kept moist for two weeks when it was planted with ‘Brim’ soybean after taking samples for nematological analyses. After eight weeks of growth, the plants were removed from the pots and soil samples taken. Data was collected on weights of fresh roots and shoots, general appearance of roots [root condition index] and root gall formation by M. arenaria. All EDI rates eliminated M. arenaria juveniles [J2] and populations of the other nematodes in the preplant samples; IM reduced J2 numbers by 50-70%, eliminated P. christiei with the 400 mg rate, but had no effect on P. brachyurus. […] The general appearance of roots was improved by EDI at rates ≦300 mg, but MI had no effect on the variable. […] M. arenaria J2 populations in roots were reduced by 60-70% by MI treatments, but the compound had no effect on root populations of P. brachyurus. MI had no effect on J2 populations in the final soil samples, although it suppressed P. christiei, by 50-70%.

Meloidogyne arenaria [11] = test: as above; type: in vivo
Description: as §9, §10

Pratylenchus brachyurus = test: as above; type: in vivo
Description: as §9, §10

[12] = tested on: root-knot [Meloidogyne arenaria]; test: Greenhouse nematicide test, iodinated C1-C3 hydrocarbons (Experiment 4); type: in vivo
Description: as §7, §8

'Brim' soybean = test: Soybean growth and root condition in treated soil (Experiment 5); type: in vivo; settings: rates 100-400 mg/kg
Description: as §9, §10

[13] = 1 h exposure, read-out: % Mortality after 1 h exposure, American cockroach
[14] = 24 h exposure, read-out: % Mortality after 24 h exposure, American cockroach
[15] = 1 h exposure, read-out: % Mortality after 1 h exposure, German cockroach
[16] = 24 h exposure, read-out: % Mortality after 24 h exposure, German cockroach

## ICCCCI [1,4-diiodobutane]
[1]
  % Mortality after 24 h exposure, Cowpea weevil: 47%
[2]
  Repellency to German cockroaches: repellent
[3]; covered pots, all dosages (2-12 mgs a.i./Kg soil)
  Nematode in soil, covered pots: eliminated
[3]; uncovered and covered state
  Dose that eliminates the nematodes: about 10 mg per kg of soil
[3]; uncovered pots, 3 highest rates
  Mortality of the nematode: 100%
[4]
  Number of weeds found in the pots as the dosage is increased (FIG. 6): steady decline
[5]; [13]
  mortality at 50 µL/jar: 0%
[5]; [14]
  mortality at 50 µL/jar: 33%
Meloidogyne arenaria [6]
  M. arenaria J2 populations in preplant samples: virtually eliminated
Heterodera glycines
  H. glycines J2 populations in preplant samples: virtually eliminated
[7]; [15]
  mortality at 50 µL/jar: 0%
[7]; [16]
  mortality at 50 µL/jar: 70%

## ICI [diiodomethane]
[1]
  % Mortality after 24 h exposure, Cowpea weevil: 100%
[8]
  Time to 100 percent mortality of cockroaches: ≤ 4 h
  Knockdown of cockroaches: ≈ 40%
[2]
  Repellency to German cockroaches: repellent
[9]; 10 days after application, all dosages (0.1, 0.2, 0.4 ml/kg soil)
  H. glycines J2 populations in soil: eliminated
[5]; [13]
  mortality at 50 µL/jar: 39%
[5]; [14]
  mortality at 50 µL/jar: 100%
[7]; [15]
  mortality at 50 µL/jar: 40%
[7]; [16]
  mortality at 50 µL/jar: 100%

## CI [iodomethane, reference compound]
[1]
  % Mortality after 24 h exposure, Cowpea weevil: 100%
[8]
  Knockdown of cockroaches: 100%
[3]; listed as C1
  Control of the nematode in soil: failed to control
[3]; listed as methyl iodide
  Control of the nematode in soil: ineffective
[10]; 400 mg rate
  P. christiei populations in preplant samples: eliminated
[10]; final soil samples
  Suppression of P. christiei in final soil samples: 50-70%
Meloidogyne arenaria [11]; after eight weeks of growth
  Reduction of M. arenaria J2 populations in roots: 60-70%
Meloidogyne arenaria [11]; final soil samples
  J2 populations in the final soil samples: no effect
Meloidogyne arenaria [11]; rates 100-400 mg/kg of soil
  Reduction of M. arenaria J2 numbers in preplant samples: 50-70%
Meloidogyne arenaria [11]; soybean after eight weeks
  Galls in roots of plants from treated soil (M. arenaria): significant numbers
Pratylenchus brachyurus; after eight weeks of growth
  Root populations of P. brachyurus: no effect
Pratylenchus brachyurus; rates 100-400 mg/kg of soil
  P. brachyurus populations in preplant samples: no effect
[9]; 0.4 ml rate
  H. glycines J2 populations in soil: reduced
[9]; rates lower than 0.4 ml
  H. glycines J2 populations in soil: ineffective
[12]; 0.4 ml rate
  Root-knot nematode juveniles in soil: eliminated
[12]; applied at ≧0.2 ml/kg soil
  Gall formation by M. arenaria: Significant suppression
[12]; rates lower than 0.4 ml
  Root-knot nematode juveniles in soil: ineffective
'Brim' soybean
  General appearance of roots [root condition index]: no effect
[5]; [13]
  mortality at 50 µL/jar: 100%
[5]; [14]
  mortality at 50 µL/jar: 100%
[7]; [15]
  mortality at 50 µL/jar: 100%
[7]; [16]
  mortality at 50 µL/jar: 100%
